The record followed here is patent publication US5827838A, “Method for the treatment of diseases related with protein isoprenylation” (priority 1994, dated 1998).

The IC50 is the point on the concentration scale where inhibition reaches its midpoint.

Read-outs that look alike come from different tables or passages of the source.

The target in series [1] is T1, protein;farnesyl transferase (Oryctolagus cuniculus, UniProt G1SFC8+G1T7D9). Put plainly: Inhibition of protein;farnesyl transferase using C-terminal octapeptide pre-p21N-ras coupled to Sepharose beads as substrate. Format: biochemical, rabbit. On the set-up: substrate N-ras C-terminal octapeptide on Sepharose beads.
For series [2], the target named is T1, protein;farnesyl transferase. Put plainly: Inhibition of farnesylation of H-ras protein (p21ras precursor) by farnesyl:protein transferase in rabbit reticulocyte lysate, [3H]-FPP incorporation. The following applies: different amounts of compound.
Target sequence in this assay (G1T7D9 entry or part of it, one chain of several): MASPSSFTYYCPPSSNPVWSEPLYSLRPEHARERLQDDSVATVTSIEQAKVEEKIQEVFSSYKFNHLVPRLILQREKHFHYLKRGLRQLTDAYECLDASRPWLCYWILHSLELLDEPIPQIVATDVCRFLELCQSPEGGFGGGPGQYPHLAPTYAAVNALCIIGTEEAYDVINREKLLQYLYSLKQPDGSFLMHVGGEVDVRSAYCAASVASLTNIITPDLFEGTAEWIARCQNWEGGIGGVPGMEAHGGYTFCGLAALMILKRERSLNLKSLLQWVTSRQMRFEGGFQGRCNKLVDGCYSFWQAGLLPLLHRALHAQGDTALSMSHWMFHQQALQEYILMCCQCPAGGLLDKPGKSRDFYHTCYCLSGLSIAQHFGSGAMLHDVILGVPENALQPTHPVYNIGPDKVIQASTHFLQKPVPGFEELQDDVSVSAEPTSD
In a further series the target is T2, squalene synthase (Rattus norvegicus, UniProt Q02769).
T2 construct: squalene synthase in rat liver microsomal preparations; from tissue; host or cells: rat liver microsomes
T2 sequence (Q02769 1-416): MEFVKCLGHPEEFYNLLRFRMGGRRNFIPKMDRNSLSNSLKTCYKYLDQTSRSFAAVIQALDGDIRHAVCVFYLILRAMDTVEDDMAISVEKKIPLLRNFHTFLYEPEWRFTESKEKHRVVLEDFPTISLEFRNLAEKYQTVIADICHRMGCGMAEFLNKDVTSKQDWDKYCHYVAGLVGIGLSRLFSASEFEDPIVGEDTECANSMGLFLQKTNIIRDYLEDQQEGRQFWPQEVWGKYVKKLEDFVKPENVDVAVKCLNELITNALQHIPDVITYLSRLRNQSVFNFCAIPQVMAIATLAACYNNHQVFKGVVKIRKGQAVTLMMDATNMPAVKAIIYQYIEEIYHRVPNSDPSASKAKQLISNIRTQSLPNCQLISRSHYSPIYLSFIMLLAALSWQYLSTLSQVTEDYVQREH
Put plainly: Inhibition of squalene synthase in rat liver microsomal preparations. It counts as biochemical. The conditions noted are these: at dosage amounts inhibiting p21ras farnesyl transferase. In general terms: Microsomes from liver hold many membrane-bound enzymes, among them those of drug oxidation.

The next series deals with Rat-1.H-ras13 cells. Put plainly: Inhibition of cell proliferation of transformed Rat-1.H-ras13 cells (cell count, trypan blue exclusion). The following applies: 10 days. It counts as cell-based. On the procedure: Cells were cultured for 10 days in DMEM supplemented with 10% fetal calf serum in the presence of 0, 25 or 100 μM of compound 3. At day 0, cells were plated in monolayer culture at 5×10^3 cells per well (6 well plates). On day 3 and 7, cells were re-fed with the same medium. On day 10, cells were harvested by trypsinization and counted using a standard hemocytometer chamber. Values are the mean of triplicate countings of duplicate incubations. In these ten days control cells had been proliferated exponentially to 1.94×10^6 ±0.04×10^6 cells per well.

Series [3] has as its system farnesylation of p21ras in Rat-1.H-ras13 cells. Format: cell-based, rat cells overexpressing human p21Ha-ras. The conditions noted are these: 24 h. On the procedure:
It was shown now that compound 3 acts as a protein: farnesyl transferase inhibitors in cultured cells. For this purpose Rat-1.H-ras13 cells, which overexpress human p21^Ha-ras (Downword J. et al., Proc. Natl. Acad. Sci. U.S.A. 1988; 85; 5774-5778), were used. These cells were incubated with [^3 H]-mevalonate and 0, 0.1, 1, 10 and 100 μM of compound 3 for 24 h in DMEM containing 1% human serum albumin and 2.5 μM of simvastatin.
Thereafter cells were lysed in 300 μl PBS supplemented with 1% Triton X-100, 0.5% sodium deoxycholate, and the protease inhibitors phenylmethylsulfonylfluoride (1 mM), leupeptine (50 μg/ml), pepstatin A (50 μg/ml) and trasylol (300 K.I.U./ml), and p21^ras was collected on immobilized monoclonal antibody Y13-259 (Osterop A.P.R.M. et al., J. Biol. Chem. 1992; 267; 14647-14653). After separation by SDS polyacrylamide gel electrophoresis the [^3 H]-labelled polypeptides were visualized by autoradiography.

[4] abbreviates: read-out: IC50, inhibition of protein;farnesyl transferase; octapeptide pre-p21N-ras on Sepharose beads as substrate.

In the case of `CC(C)=CCCC(C)=CCCC(C)=CCOCP(=O)(O)OP(=O)(O)O` [compound 5, farnesyloxymethylphosphono-phosphate], in series [1] (setting [4]), the IC50 came out at 520 ± 70 nM.
As for `CC(C)=CCCC(C)=CCCC(C)=CCCP(=O)(O)OP(=O)(O)O` [compound 1, farnesylmethylphosphonophosphate], in series [1] (setting [4]), the 50% inhibitory concentration (IC50) is 930 ± 230 nM. Besides, the “enzyme activity (farnesyl:protein transferase), result in words” value in series [2] is listed as “concentration-dependently decreased”. The “inhibition of squalene synthesis at amounts that inhibit p21ras farnesyl transferase, result in words” value on squalene synthase is listed as “without inhibiting squalene synthesis”.
Take `CC(C)=CCCC(C)=CCCC(C)=CCP(=O)(O)OP(=O)(O)O` [compound 3, farnesylphosphonophosphate]: the “non-viable cells, trypan blue exclusion” value in the series with Rat-1.H-ras13 cells (0, 25 or 100 μM) is on record as “no non-viable cells”. Moreover, the “inhibition of proliferation of transformed cells, result in words” value in the series on Rat-1.H-ras13 cells (25 and 100 μM) was “concentration-dependently inhibits the proliferation of transformed cells in culture”. Also, in the series with Rat-1.H-ras13 cells (Rattus norvegicus, 240 h, 25 μM, read-out: reduction in cell numbers (of control values)), the inhibition at 25 µM came to 32.5%. Further, the inhibition at 100 µM in the series on Rat-1.H-ras13 cells (Rattus norvegicus, 240 h, 100 μM, read-out: reduction in cell numbers (of control values)) amounted to 49.5%. In addition, the IC50 in series [1] (setting [4]) was 340 ± 50 nM; in series [3] (DMEM with 1% human serum albumin and 2.5 μM simvastatin, read-out: IC50, inhibition of farnesylation of p21ras in cells), 1000 to 10000 nM. In series [3] (100 μM), the “radioactivity measured in p21ras / farnesylation of ras protein, result in words” value is “no radioactivity was measured, showing that the farnesylation of the ras protein was totally blocked”. For the same molecule, the “radioactivity incorporated into p21ras, result in words” value in series [3] (increasing concentrations (0.1, 1, 10, 100 μM)) is “less radioactivity was incorporated into p21^ras”. For the same molecule, the “enzyme activity (farnesyl:protein transferase), result in words” value in series [2] is “concentration-dependently decreased”. Also, the “inhibition of squalene synthesis at amounts that inhibit p21ras farnesyl transferase, result in words” value against squalene synthase is on record as “without inhibiting squalene synthesis”.
Regarding `CC(C)=CCCC(C)=CCCC(C)=CCC(CC=C(C)CCC=C(C)CCC=C(C)C)(P(=O)(O)O)P(=O)(O)O` [bisfarnesylmethylenebis(phosphonic acid), reference compound], the IC50 in series [1] (octapeptide pre-p21N-ras on Sepharose beads as substrate; read-out: IC50, inhibition of protein;farnesyl transferase) came out at 147000 ± 37000 nM.
For `CC(C)=CCCC(C)=CCCC(C)=CCC(OCP(=O)(O)O)P(=O)(O)O` (stereo not shown) [compound 6, farnesyl(phosphono)methoxymethylphosphonic acid], the IC50 in series [1] (read-out: IC50, inhibition of protein;farnesyl transferase; octapeptide pre-p21N-ras on Sepharose beads as substrate; unit μm [sic]) came to 580 ± 440 nM.
